Assay results published in patent publication US20080038809A1, “ISOLATED LECTIN POLYPEPTIDES CONSISTING OF TRUNCATED […] UDP-GalNAc:POLYPEPTIDE N- ACETYLGALACTOSAMINYLTRANSFERASES” (GLYCOZYM APS, priority 2002, published 2008).

Legend:
[1] = molecular target: T1, GalNAc-T2 lectin domain (Homo sapiens, UniProt Q10471); assay: Inhibition of GalNAc-T2 lectin domain (T2ld) binding to GalNAc-MUC1 glycopeptide, ELISA
T1 construct: comprises amino acid residues 408-571 of GALNT2; made in house; host or cells: baculovirus (pAcGP67-A), virus made in Sf9, protein produced in High Five insect cells
T1 sequence (Q10471 408-571): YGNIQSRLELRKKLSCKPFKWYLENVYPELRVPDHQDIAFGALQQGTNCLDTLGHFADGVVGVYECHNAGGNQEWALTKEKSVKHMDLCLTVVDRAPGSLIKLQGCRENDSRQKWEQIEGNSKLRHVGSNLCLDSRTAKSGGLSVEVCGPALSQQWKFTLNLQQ
Procedure: (§1) Direct binding ELISA assay was developed as follows: Polystyrene microtiter plates (Maxisorb, Nunc, Denmark) were coated with peptides or enzymatically glycosylated glycopeptides in PBS overnight at 4° C. Plates were washed and blocked with 0.1% Tween20 and 0.2% BSA in PBS for 1 h at room temperature, followed by incubation with biotinylated proteins in PBS with 0.05% Tween20 for 2 h at room temperature. After four washes with PBS, plates were incubated with 1:2,000 dilution streptavidin-HRP (Sigma) in PBS for 30 min at room temperature and washed four times with PBS. Development was performed with 0.5 mg/ml o-phenylenediamine and 0.02% H2O2 at room temperature for 15 min, and reaction stopped by adding 100 μl/well of 0.5 N H2SO4. Competitive inhibition assays were done at end-point titers of GalNAc-transferase proteins with one hour preincubations with inhibitor.
(§2) In binding studies using lectins without biotinylation antibodies to the HIS-tag and the T7-tag, or in some experiments antibodies raised to GalNAc-T2 and -T4 enzymes were used to detect binding.
(§3) Inhibition experiments were used to further define the binding specificity of GalNAc-T2 and -T4 secreted soluble enzymes as well as lectin domains compared to Helix Pomatia lectin (Table IV).

[2] = molecular target: T2, secreted soluble GalNAc-T2 (Homo sapiens, UniProt Q10471); assay: Inhibition of secreted soluble GalNAc-T2 (sT2) binding to GalNAc-MUC1 glycopeptide, ELISA
T2 construct: 6xHis (N); thrombin cleavage site (N); T7 antibody site (N); made in house; host or cells: baculovirus (pAcGP67A), High Five insect cells
Procedure: as §1, §3

[3] = molecular target: T3, GalNAc-T4 lectin domain (Homo sapiens, UniProt Q8N4A0); assay: Inhibition of GalNAc-T4 lectin domain (T4ld) binding to GalNAc-MUC1 glycopeptide, ELISA
T3 construct: comprises amino acid residues 405-578 of GALNT4; made in house; host or cells: baculovirus (pAcGP67-A), virus made in Sf9, protein produced in High Five insect cells
Procedure: as §1, §2, §3

[4] = molecular target: T4, secreted soluble GalNAc-T4 (Homo sapiens, UniProt Q8N4A0); assay: Inhibition of secreted soluble GalNAc-T4 (sT4) binding to GalNAc-MUC1 glycopeptide, ELISA
T4 construct: 6xHis (N); thrombin cleavage site (N); T7 antibody site (N); made in house; host or cells: baculovirus (pAcGP67A), High Five insect cells
Procedure: as §1, §3

[5] = system: MUC1 in CHO1d1D/MUC1F-clone2 cells; assay: Cell surface expression of MUC1 by immunocytology of non-permeabilized cells (FIG. 11); type: cell-based, Chinese Hamster; settings: 1 mM, cells grown in GalNAc
Procedure: Immunocytology: Two different procedures were applied: i) For general screening purposes, cells grown in plates or flasks were trypsinized, washed in saline, and airdried on multiwell coverslides. Slides were fixed in ice-cold acetone and stained with monoclonal antibodies and FITC-conjugated rabbit anti-mouse Ig as previously described^50. ii) For analysis of cell surface expression, cells were seeded in 6 well plates and grown for 6 hours in Hams F12 medium with serum until approximately 30-50% subconfluent. […] Cells were washed once in PBS (phosphate buffered saline without Calcium and Magnesium) and subsequently fixed in 2 ml 3% paraformaldehyde at 25° C. for 20 min followed by three washes with PBS. Free aldehyde groups were quenched by incubating in 2 mL 50 mM Ammonium Chloride in PBS for 10 min, followed by three washes with PBS and three washes with 5 min incubations each with PBS containing 0.2% Fish Skin Gelatin (Sigma). Immunostaining of cells was performed by incubation with monoclonal antibodies for 40 min at 25° C., followed by three washes with PBS and three washes of 5 min each with PBS containing 0.2% Fish Skin Gelatin. […]
We therefore investigated the effect of treatment with GalNAcα-benzyl of CHO1d1D/MUC1F-clone2 cells grown in the presence of GalNAc. […] Initially we analyzed surface expression of MUC1 by immunocytology. […]

[6] = system: MUC1 in CHO1d1D/MUC1F-clone2 cells; assay: MUC1 expression in cell lysates, immunoprecipitation and SDS-PAGE western blot (FIGS. 12-15); type: cell-based, Chinese Hamster; settings: 2 mM, 48 hours, 5E5 blot
[7] = system: O-glycan processing; settings: cited from earlier work
[8] = molecular target: β3Gal-T4 (Homo sapiens, UniProt O96024); settings: cited from earlier work
[9] = molecular target: human GalNAc-T4 (UDP-GalNAc:polypeptide N-acetylgalactosaminyltransferase T4), secreted soluble enzyme (sT4), wild type (Homo sapiens, UniProt Q8N4A0); settings: binding to GalNAc-MUC1 glycopeptide
Procedure: The pH of 1 ml purified protein (0.3 mg/ml) in PBS was adjusted to pH 9 with 1 M NaOH and 40 μl N-hydroxy-succinimidobiotin (Sigma) dissolved in DMF (10 mg/ml) was added. The solution was mixed end-over-end for 2 hours at room temperature, and dialyzed three times against PBS and an equal volume of glycerol was added. The biotinylated proteins were stored at −20° C. in 50% glycerol until use.
Glycopeptides were purified by C-18 reverse phase HPLC. Peptides were custom synthesized by Neosystems (Strasbourg). Biotinylated Helix Pomatia lectin (HPA) was from KemEnTec (Denmark). Anti-MUC1 HMFG2 monoclonal antibody was a generous gift from Joyce Taylor-Papadimitriou.
as §1, with “Development was performed with 0.5 mg/ml o-phenylenediamine and 0.02% H2O2 at room temperature for 15 min, and reaction stopped by adding 100 μl/well of 0.5 N H2SO4. Competitive inhibition assays were done at end-point titers of GalNAc-transferase proteins with one hour preincubations with inhibitor.” left out

T3 sequence (Q8N4A0 405-578): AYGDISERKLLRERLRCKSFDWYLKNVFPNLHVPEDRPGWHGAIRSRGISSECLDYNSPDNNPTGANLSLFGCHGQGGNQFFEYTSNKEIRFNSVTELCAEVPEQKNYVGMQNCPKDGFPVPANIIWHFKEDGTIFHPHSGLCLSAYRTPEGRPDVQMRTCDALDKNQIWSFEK
T2 sequence (Q10471 52-571 limits assumed): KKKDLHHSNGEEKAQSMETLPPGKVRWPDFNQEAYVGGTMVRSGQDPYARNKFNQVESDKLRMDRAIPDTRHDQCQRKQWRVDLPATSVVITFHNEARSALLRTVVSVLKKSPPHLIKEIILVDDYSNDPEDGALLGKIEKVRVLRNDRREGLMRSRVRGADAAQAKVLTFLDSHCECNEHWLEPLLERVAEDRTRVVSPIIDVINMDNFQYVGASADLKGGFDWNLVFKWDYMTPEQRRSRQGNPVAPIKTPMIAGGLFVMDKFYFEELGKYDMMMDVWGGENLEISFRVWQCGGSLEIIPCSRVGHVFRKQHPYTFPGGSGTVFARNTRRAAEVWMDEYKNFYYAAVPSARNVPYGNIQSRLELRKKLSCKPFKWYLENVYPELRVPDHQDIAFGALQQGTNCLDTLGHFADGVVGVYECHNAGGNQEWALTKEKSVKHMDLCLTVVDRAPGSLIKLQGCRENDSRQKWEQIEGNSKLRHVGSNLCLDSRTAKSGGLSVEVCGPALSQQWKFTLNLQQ
human GalNAc-T4 (UDP-GalNAc:polypeptide N-acetylgalactosaminyltransferase T4), secreted soluble enzyme (sT4), wild type, sequence (Q8N4A0 36-578 limits assumed): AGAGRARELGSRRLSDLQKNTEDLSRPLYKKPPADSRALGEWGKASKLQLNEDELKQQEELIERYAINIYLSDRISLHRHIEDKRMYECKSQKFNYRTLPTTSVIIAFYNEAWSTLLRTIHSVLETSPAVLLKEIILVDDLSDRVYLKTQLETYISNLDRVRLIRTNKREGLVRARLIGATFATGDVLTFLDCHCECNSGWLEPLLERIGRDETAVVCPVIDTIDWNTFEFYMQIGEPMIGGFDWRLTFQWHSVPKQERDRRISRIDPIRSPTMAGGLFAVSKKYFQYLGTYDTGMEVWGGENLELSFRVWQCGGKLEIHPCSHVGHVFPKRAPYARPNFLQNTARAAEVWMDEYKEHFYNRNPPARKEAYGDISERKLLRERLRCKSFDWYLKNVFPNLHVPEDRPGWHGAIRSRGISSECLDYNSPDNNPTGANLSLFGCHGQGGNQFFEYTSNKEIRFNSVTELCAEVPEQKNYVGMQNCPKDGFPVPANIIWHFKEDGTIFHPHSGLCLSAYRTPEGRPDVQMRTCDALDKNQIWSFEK
T4 sequence (Q8N4A0 36-578 limits assumed): as above
β3Gal-T4, sequence (O96024 whole entry): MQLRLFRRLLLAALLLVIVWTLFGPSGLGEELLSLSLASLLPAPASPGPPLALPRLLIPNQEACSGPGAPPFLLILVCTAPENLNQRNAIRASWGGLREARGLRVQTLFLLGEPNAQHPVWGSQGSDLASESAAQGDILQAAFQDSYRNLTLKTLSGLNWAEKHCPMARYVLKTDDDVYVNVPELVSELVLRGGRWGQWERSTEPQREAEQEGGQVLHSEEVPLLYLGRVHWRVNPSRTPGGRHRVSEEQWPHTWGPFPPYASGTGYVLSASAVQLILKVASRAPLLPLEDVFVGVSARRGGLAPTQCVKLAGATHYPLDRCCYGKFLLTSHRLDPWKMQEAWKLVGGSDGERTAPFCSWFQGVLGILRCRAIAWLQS

**Q.** With `CC(=O)N[C@H]1[C@@H](OCc2ccccc2)O[C@H](CO)[C@H](O)[C@@H]1O` [BzlαGalNAc, benzyl-N-acetyl-alpha-D-galactosaminide] as the molecule, how does the IC50 [1] read?
**A.** 20 mM

**Q.** And the IC50 [2]?
**A.** 15 mM

**Q.** What about the IC50 [3] of the same molecule?
**A.** 5 mM

**Q.** And the IC50 [4]?
**A.** 1 mM

**Q.** And the “cell surface expression of MUC1” value [5]?
**A.** strong inhibition

**Q.** What about the MUC1 expression [6] of the same molecule?
**A.** significant reduction

**Q.** For `CC(=O)N[C@H]1[C@@H](OCc2ccccc2)O[C@H](CO)[C@H](O)[C@@H]1O` [GalNAcα-benzyl, benzyl-N-acetyl-alpha-D-galactosaminide], which “inhibition of O-glycan processing / sialylation” value [7] is on record?
**A.** inhibit sialylation

**Q.** For `CC(=O)N[C@H]1[C@H](OCc2ccccc2)O[C@H](CO)[C@H](O)[C@@H]1O` [GalNAcβ-benzyl], which “activity of β3Gal-T4 with the compound as acceptor” value [8] is on record?
**A.** no or very poor activity

**Q.** For `CC(=O)N[C@H]1[C@@H](OCc2ccccc2)O[C@H](CO)[C@@H](O)[C@@H]1O` [GlcNAcα-benzyl], which “inhibition of GalNAc-T4 lectin binding (in words)” value [9] is on record?
**A.** no inhibition
